Source: patent publication US6054435A, “6-O-substituted macrolides having antibacterial activity” (priority 1999, dated 2000)
Values after ≈ are worked out from the molar mass of the structure shown.

How the values were obtained:
Assay in all cases: in vitro antibacterial activity (MIC), agar dilution
Format in all cases: cell-based
Candida albicans CCH 442 = conditions: organism code TT; BHI agar, 35-37° C., 20 to 24 hours; unit assumed
Experimental: (§1) Representative compounds of the present invention were assayed in vitro for antibacterial activity as follows: Twelve petri dishes containing successive aqueous dilutions of the test compound mixed with 10 mL of sterilized Brain Heart Infusion (BHI) agar (Difco 0418-01-5) were prepared. Each plate was inoculated with 1:100 (or 1:10 for slow-growing strains, such as Micrococcus and Streptococcus) dilutions of up to 32 different microorganisms, using a Steers replicator block. […] In addition, a control plate, using BHI agar containing no test compound, was prepared and incubated at the beginning and end of each test.
(§2) An additional plate containing a compound having known susceptibility patterns for the organisms being tested and belonging to the same antibiotic class as the test compound was also prepared and incubated as a further control, as well as to provide test-to-test comparability.
(§3) After incubation, each plate was visually inspected. The minimum inhibitory concentration (MIC) was defined as the lowest concentration of drug yielding no growth, a slight haze, or sparsely isolated colonies on the inoculum spot as compared to the growth control.

Escherichia coli JUHL = conditions: organism code QQ; BHI agar, 35-37° C., 20 to 24 hours; unit assumed
Experimental: as §1, §2, §3

Escherichia coli SS = conditions: organism code RR; BHI agar, 35-37° C., 20 to 24 hours; unit assumed
Experimental: as §1, §2, §3

[1] = tested on: Haemophilis Influenzae DILL AMP R; conditions: organism code WW; BHI agar, 35-37° C., 20 to 24 hours; unit assumed
Experimental: as §1, §2, §3

[2] = tested on: Micrococcus luteus ATCC 4698; conditions: organism code PP; BHI agar, 35-37° C., 20 to 24 hours; unit assumed
Experimental: as §1, §2, §3

[3] = tested on: Mycobacterium smegmatis ATCC 114; conditions: organism code UU; BHI agar, 35-37° C., 20 to 24 hours; unit assumed
Experimental: as §1, §2, §3

[4] = tested on: Nocardia Asteroides ATCC9970; conditions: organism code VV; BHI agar, 35-37° C., 20 to 24 hours; unit assumed
Experimental: as §1, §2, §3

[5] = tested on: Staphylococcus aureus 1775; conditions: organism code GG; BHI agar, 35-37° C., 20 to 24 hours; unit assumed
Experimental: as §1, §2, §3

[6] = tested on: Staphylococcus aureus A-5278; conditions: organism code CC; BHI agar, 35-37° C., 20 to 24 hours; unit assumed
Experimental: as §1, §2, §3

[7] = tested on: Staphylococcus aureus A5177; conditions: organism code BB; BHI agar, 35-37° C., 20 to 24 hours; unit assumed
Experimental: as §1, §2, §3

[8] = tested on: Staphylococcus aureus ATCC 6538P; conditions: organism code AA; BHI agar, 35-37° C., 20 to 24 hours; unit assumed
Experimental: as §1, §2, §3

[9] = tested on: Staphylococcus aureus NCTC10649M; conditions: organism code EE; BHI agar, 35-37° C., 20 to 24 hours; unit assumed
Experimental: as §1, §2, §3

[10] = tested on: Staphylococcus epidermidis 3519; conditions: organism code HH; BHI agar, 35-37° C., 20 to 24 hours; unit assumed
Experimental: as §1, §2, §3

[11] = tested on: Streptococcus Pneumonia 5649; conditions: organism code ZZA; BHI agar, 35-37° C., 20 to 24 hours; unit assumed
Experimental: as §1, §2, §3

[12] = tested on: Streptococcus Pneumonia 5979; conditions: organism code ZZ; BHI agar, 35-37° C., 20 to 24 hours; unit assumed
Experimental: as §1, §2, §3

[13] = tested on: Streptococcus Pneumonia ATCC6303; conditions: organism code XX; BHI agar, 35-37° C., 20 to 24 hours; unit assumed
Experimental: as §1, §2, §3

[14] = tested on: Streptococcus Pneumonia GYR 1171; conditions: organism code YY; BHI agar, 35-37° C., 20 to 24 hours; unit assumed
Experimental: as §1, §2, §3

[15] = tested on: Streptococcus agalactiae CMX 508; conditions: organism code KK; BHI agar, 35-37° C., 20 to 24 hours; unit assumed
Experimental: as §1, §2, §3

[16] = tested on: Streptococcus bovis A-5169; conditions: organism code JJ; BHI agar, 35-37° C., 20 to 24 hours; unit assumed
Experimental: as §1, §2, §3

[17] = tested on: Streptococcus pyogenes 930; conditions: organism code MM; BHI agar, 35-37° C., 20 to 24 hours; unit assumed
Experimental: as §1, §2, §3

[18] = tested on: Streptococcus pyogenes EES61; conditions: organism code LL; BHI agar, 35-37° C., 20 to 24 hours; unit assumed
Experimental: as §1, §2, §3

[19] = tested on: Streptococcus pyogenes PIU 2548; conditions: organism code NN; BHI agar, 35-37° C., 20 to 24 hours; unit assumed
Experimental: as §1, §2, §3

[20] = tested on: Enterococcus faecium ATCC 8043; conditions: organism code II; BHI agar, 35-37° C., 20 to 24 hours; unit assumed
Experimental: as §1, §2, §3

[21] = tested on: Staphylococcus aureus CMX 642A; conditions: organism code DD; BHI agar, 35-37° C., 20 to 24 hours; unit assumed
Experimental: as §1, §2, §3

Compound	MIC (Candida albicans CCH 442) [µg/mL]	MIC (Escherichia coli JUHL) [µg/mL]	MIC (Escherichia coli SS) [µg/mL]	MIC [1] [µg/mL]	MIC [2] [µg/mL]	MIC [3] [µg/mL]	MIC [4] [µg/mL]	MIC [5] [µg/mL]	MIC [6] [µg/mL]	MIC [7] [µg/mL]	MIC [8] [µg/mL]	MIC [9] [µg/mL]	MIC [10] [µg/mL]	MIC [11] [µg/mL]	MIC [12] [µg/mL]	MIC [13] [µg/mL]	MIC [15] [µg/mL]	MIC [16] [µg/mL]	MIC [18] [µg/mL]	MIC [19] [µg/mL]	further results
CC[C@H]1OC(=O)[C@H](C)C(=O)[C@H](C)[C@@H](O[C@@H]2O[C@H](C)C[C@H](N(C)C)[C@H]2O)[C@](C)(OC/C=C/c2ccc(-c3ccncn3)s2)C[C@@H](C)C(=O)[C@H](C)[C@H]2NC(=O)O[C@@]21C [Example 64]	> 100	50 (≈ 62.6 µM)	0.39 (≈ 0.488 µM)	2 (≈ 2.5 µM)	0.2 (≈ 0.25 µM)	0.78 (≈ 0.976 µM)	0.01 (≈ 0.0125 µM)	> 100	> 100	0.05 (≈ 0.0626 µM)	0.05 (≈ 0.0626 µM)	0.05 (≈ 0.0626 µM)	0.05 (≈ 0.0626 µM)	0.25 (≈ 0.313 µM)	2 (≈ 2.5 µM)	≤ 0.004	0.02 (≈ 0.025 µM)	≤ 0.005	0.01 (≈ 0.0125 µM)	0.1 (≈ 0.125 µM)	MIC [14]: ≤ 0.004 µg/mL; MIC [17]: 3.1 µg/mL (≈ 3.88 µM)
CC[C@H]1OC(=O)[C@H](C)C(=O)[C@H](C)[C@@H](O[C@@H]2O[C@H](C)C[C@H](N(C)C)[C@H]2O)[C@](C)(OCC#Cc2ccc(-c3cncc(C(=O)NN(C)C)c3)s2)C[C@@H](C)C(=O)[C@H](C)[C@H]2NC(=O)O[C@@]21C [Example 12]	> 100	> 100	0.78 (≈ 0.884 µM)	16 (≈ 18.1 µM)	0.39 (≈ 0.442 µM)	6.2 (≈ 7.03 µM)	0.2 (≈ 0.227 µM)	> 100	> 100	0.39 (≈ 0.442 µM)	0.39 (≈ 0.442 µM)	0.39 (≈ 0.442 µM)	0.39 (≈ 0.442 µM)	1 (≈ 1.13 µM)	1 (≈ 1.13 µM)	0.03 (≈ 0.034 µM)	0.05 (≈ 0.0567 µM)	0.05 (≈ 0.0567 µM)	0.05 (≈ 0.0567 µM)	0.78 (≈ 0.884 µM)	MIC [20]: 0.02 µg/mL (≈ 0.0227 µM); MIC [14]: 0.03 µg/mL (≈ 0.034 µM); MIC [17]: 50 µg/mL (≈ 56.7 µM)
CC[C@H]1OC(=O)[C@H](C)C(=O)[C@H](C)[C@@H](O[C@@H]2O[C@H](C)C[C@H](N(C)C)[C@H]2O)[C@](C)(OCC#Cc2ccc(-c3ccncc3)s2)C[C@@H](C)C(=O)[C@H](C)[C@H]2NC(=O)O[C@@]21C [Example 3]	> 100	100 (≈ 126 µM)	0.2 (≈ 0.251 µM)	–	0.05 (≈ 0.0628 µM)	–	0.01 (≈ 0.0126 µM)	–	> 100	0.05 (≈ 0.0628 µM)	0.05 (≈ 0.0628 µM)	–	> 100	–	–	–	≤ 0.05	≤ 0.05	≤ 0.05	0.1 (≈ 0.126 µM)	MIC [21]: 0.1 µg/mL (≈ 0.126 µM)
CC[C@H]1OC(=O)[C@H](C)C(=O)[C@H](C)[C@@H](O[C@@H]2O[C@H](C)C[C@H](N(C)C)[C@H]2O)[C@](C)(OCC#Cc2ccc(-c3ccccn3)s2)C[C@@H](C)C(=O)[C@H](C)[C@H]2N(N)C(=O)O[C@]12C [Example 36]	> 100	–	0.2 (≈ 0.247 µM)	–	0.1 (≈ 0.123 µM)	1.56 (≈ 1.92 µM)	–	> 100	> 100	0.05 (≈ 0.0617 µM)	0.05 (≈ 0.0617 µM)	0.1 (≈ 0.123 µM)	0.1 (≈ 0.123 µM)	–	–	–	–	–	–	0.39 (≈ 0.481 µM)	–
